Measured values: US20250041194A1, “COMPOSITION COMPRISING GALACTINOL AND USE THEREOF” (Clariant International Ltd, priority 2021, published 2025)

Assays:
[1] = system: HSP27; test: HSP27 protein expression by immunostaining; assay type: cell-based, human; conditions: NHDF, 24 h treatment, basal (non stressed) condition; FIG. 5
Protocol: NHDF were treated with Gal or C-Gal for 24 h (treated cells). […] Pictures were realized with a Nikon microscope (Eclipse Ti2). The quantification of HSP27 was measured by image analysis of fluorescence intensity per cell using Image J software. The statistical analysis (Dunnett) was realized with Minitab software (*p<0.05 compared to control). Results were obtained by performing three independent assays.

[2] = system: NHDF; test: Cell protection against UVA irradiation, bright-field cell morphology observation; assay type: cell-based, human; conditions: UVA 10 J/cm^2, curative, observed after 24 hours, data not shown
Protocol: (§1) In the following studies, the capabilities of Gal and C-Gal to protect skin cells (NHEK and NHDF) against various stress agents such as UV irradiations (UVB and UVA), or environmental factors (humidity and temperature) were assessed.
The same experiments as described above were repeated by using UVA irradiation on NHDF in the following condition: • “Curative” condition: Gal or C-Gal was applied after UVA irradiation (10 J/cm^2), and the morphology of the cells were observed after 24 hours.

[3] = system: NHEK; test: Cell protection against UVB irradiation, bright-field cell morphology observation; assay type: cell-based, human; conditions: UVB 30 mJ/cm^2, preventive/curative/combined, observed after 24 hours, data not shown
Protocol: as §1
Briefly, using a bright-field imaging microscope, it was studied the effect of the UVB irradiation on NHEK's morphology in various experimental conditions in presence or not of Gal and C-Gal: • “Preventive” condition: Gal or C-Gal was applied on NHEK during 24 hours before UVB irradiation (30 mJ/cm^2), and the morphology of the cells was observed after 24 hours, • “Curative” condition: Gal or C-Gal was applied after UVB irradiation, and the morphology of the cells was observed after 24 hours, • Combined condition “preventive and curative”: Gal or C-Gal was applied before and after UVB irradiation and the morphology of the cells was observed after 24 hours.

[4] = system: normal human dermal fibroblasts (NHDF); test: Transcriptomic study, mRNA expression by RT-qPCR (Taqman); assay type: cell-based; conditions: 24 h treatment, vs untreated
Protocol: The mRNA expression was quantified after 24 h of NHDF treatment with both Gal and C-Gal.
mRNA extraction was realized according to the provider recommendations (Qiagen). Briefly, lysis buffer RLT-Plus was added on the cell pellet and the homogenous lysate was transferred in a column. The eluate was mixed with one volume 70° ethanol and was transferred in a pink <<RNeasy>> column. The column was washed with buffer. Elution was realized with RNase-free water and the RNA quantitation was done by D.O. 260 nm, 280 nm, 320 nm measurements (Biotek, Cytation3 & Take3 Plate) with “Nucleic Acid Quantification” software application. mRNA quality was checked using a fragment analyser (Advanced Analytical). Then, mRNA reverse transcription allowing the obtention of cDNA templates was performed on a thermal cycler (Bio-Rad). cDNA templates were used to perform the qPCR. For the transcriptomic study, it was used Biorad predesigned plates for ECM components, antioxidants genes, skin homeostasis. Then, the data generated allowed the automatic calculation using Bio-Rad CFX manager of mRNA expression fold change and p values in comparison to untreated condition.
All data are statistically significant compared to control condition (p value <0.05).

[5] = system: NHEK; test: Cell protection against environmental stress (heat, hydric), bright-field cell morphology observation; assay type: cell-based, human; conditions: heat stress 37 to 44° C. 30 min, hydric stress 90% to 45% relative humidity, or both, data not shown
Protocol: as §1
Finally, the effect of environmental stress on cell morphology was studied in NHEK treated with and without Gal or C-Gal (using a bright-field imaging microscope). The environmental stress applied were either a heat stress (increase in temperature from 37° C. to 44° C. during 30 min), or an hydric stress “modulation of relative humidity from 90% to 45%” or a combination of both stresses “heat plus hydric stresses”.

OC[C@H]1O[C@H](O[C@@H]2[C@@H](O)[C@H](O)[C@@H](O)[C@H](O)[C@@H]2O)[C@H](O)[C@@H](O)[C@H]1O [Gal, 3-O-α-D-galactopyranosyl-D-myo-inositol]
HSP27 expression (fluorescence intensity per cell) [1]: clear stimulation | cell morphology [2]: quite regular and expected cells morphology | cell number vs stress condition alone [2]: more cells are present | cell morphology [3]: quite regular and expected cells morphology | cell number vs stress condition alone [3]: more cells are present | ECM genes and proteins expressions (COL5A1, ELN, SDC4, VCAN, LAMC2, LUM, ITGA1) ([4]; p value <0.05, FIG. 2): modulation | antioxidant genes expression (NQO1, HMOX1, GPX1, G6PD) ([4]; p value <0.05, FIG. 3): modulated | growth factors gene expression (TGF Beta 1 and NGF) ([4]; p value <0.05, FIG. 4): upregulation | heat shock proteins gene expression (HSPA1A and HSP90AA) ([4]; p value <0.05, FIG. 4): upregulation | mRNA expressions of PCNA, MKi67 and GADD45A (DNA repair and cell proliferation) ([4]; p value <0.05, FIG. 4): upregulation | cell morphology [5]: quite regular and expected cells morphology
